Experimental data published in patent US20230003721A1, “MITOTHERAPEUTICS FOR THE TREATMENT OF BRAIN DISORDERS” (The University of Florida Research Foundation, Inc., priority 2019, published 2023).
Counter-ions that a name gives are not always drawn.

How the values were obtained:
primary neurons [1] = settings: 75 μM peroxide, 12.5 μM compound, 48 h
[2] = system: isolated forebrain mitochondria; test: ATP production of isolated mitochondria (luciferase-based kinetic assay); type: biochemical, mouse
Procedure: Isolation of mitochondria. For the ATP synthesis experiments of FIG. 6, forebrains from P0 pups were dissected as described above. 2×10^7 cells were harvested for high-purity mitochondrial isolation using the Qiagen QProteome kit. The mitochondrial pellet was resuspended in 500 μl mitochondria storage buffer (provided by kit) and kept on ice until further use.
ATP production of isolated forebrain mitochondria of P0 pups was measured by ATP Determination Kit (Molecular Probes). […] The reactions were initiated by the addition of 1 mM ADP (deprived of ATP contamination by adding 3 U/ml hexokinase to 10 mM of ADP in 50 mM Tris-HCl, 20 mM MgCl2 and 22 mM glucose, incubating the solution at 37° C. for 1 hr and heat inactivating the hexokinase at 100° C. for 3 min). Luminescence was recorded every 15-30 sec for 1 hr at 580±40 nm.

primary neurons [3] = test: Mitochondrial morphology and neurite area after functional modulators; type: cell-based, mouse; parameters: key to Neurite Area: non-significant (n.s.); settings: for axonal mitochondrial circularity / neuritic area: after 48 h of treatment; for Mitochondrial Morphology / Neurite Area: significant change
Procedure: Mitochondrial morphology and neurite area measurements. Mitochondrial morphology and neurite area were quantified using methods described by Varkuti et al, 2020. Briefly, Cre-dependent mitochondrial targeted GFP2 (mito-GFP) ROSA26 knock-in mice were crossed with Ai14 (007908, The Jackson Laboratory) expressing cytosolic-tdTomato, and the forebrain of P0 pups were isolated and primary neurons were cultured as described above. AAV9 virus containing the iCRE sequence driven by the neuron specific CaMKII promoter was added to the cell culture at plating and 75% of the media replaced 4 h after plating. […] Z-projected images of the green channel were preprocessed (background subtraction: rolling ball, radius=3; median filtering: radius=1) and somatic mitochondria were removed (see details in Varkuti et al, Science Advances 6 (2020) eaaw8702). Red channel images were also preprocessed (tubeness filter, soma removal). Preprocessed images were segmented by GE Developer software (object-based, kernel size: 3). […] The length and circularity measurements for mitochondria were aggregated using the median and the area for neurites using the sum. After removing empty fields and outlier values from the fields, aggregated field values were averaged to well values (4 fields/well, 12 wells/compound). Robust Z-scores were calculated using DMSO-treated wells for each well ((mediancompound−medianDMSO)/median absolute deviationDMSO), well values were averaged for each compound.
A high-content assay was developed in parallel to monitor aspects of mitochondrial dynamics in primary cultured neurons that conditionally express (Cre recombinase dependent) mitochondrial-tagged GFP and cytosolic tdTomato reporters (Varkuti et al., 2020). We monitored two aspects of neuritic mitochondrial dynamics: (1) the health of mitochondria as measured by the average circularity of axonal mitochondria, since defective mitochondria targeted for mitophagy become circular in shape, and (2) the balance between fission/fusion measured by the average length of dendritic mitochondria. […] FIG. 19A illustrates the results of surveying a collection of functional modulators selected from 5 different structural clusters (FIG. 17), quantified as robust z-scores relative to DMSO-treated control neurons.

primary neurons [4] = test: Oxygen consumption rate (OCR) of permeabilized primary neurons; type: cell-based, mouse
Procedure: The oxygen consumption rate (OCR) of permeabilized neurons and isolated brain mitochondria (from 9-month old mice) was measured by the XF96 Extracellular Flux analyzer (Seahorse Bioscience). […] Prior to the start of the OCR measurement, all but 30 μl of Neurobasal A/B27 culture medium was removed from each well. Cells were washed twice with pre-warmed MAS-BSA assay medium (4 mg/ml fatty-acid free BSA, pH=7.2) and incubated in 180 μl at 37° C. for 5 min. Following the cartridge calibration, cells were loaded into the XF96 Extracellular Flux analyzer and further equilibrated for 10 min with two cycles of 3 min mixing and 2 min resting prior to the first measurement of basal respiration. OCR were measured at 37° C. under basal conditions followed by the sequential injection of pre-warmed 10× mitochondrial substrates/ADP (20 μl), oligomycin (22 μl), FCCP (24 μl), and rotenone/antimycin A (26 μl). The final concentrations of injected compounds were as follows: 10 mM mitochondrial substrates (pyruvate/malate or succinate), 1 mM ADP, 1.5 μM oligomycin, 3 μM FCCP, 2 μM rotenone/antimycin A. Saponin (25 μg/ml) was co-injected with substrate/ADP to permeabilize the cells and stimulate ADP-dependent respiration. Two baseline measurements were obtained prior to any injection and 2 response measurements were collected after each injection except for after FCCP addition which consisted of 1 measurement (9 total measurements in each assay). Each measurement cycle consisted of 2 min mixing, 2 min waiting, and 3 min data acquisition. This protocol allowed for sequential assessment of basal cell respiration, maximal mitochondrial respiratory capacity (State 3 with substrate/ADP), proton leak (State 4o with oligomycin), uncoupled maximal respiration (State 3U with FCCP) and non-mitochondrial respiration with the Complex I/Complex III inhibitors, rotenone/antimycin A. Cells were washed twice with MAS buffer to remove residue BSA contained in the assay medium, lysed in 50 μl lysis buffer (25 mM HEPES, 1 mM EGTA, 1 mM EDTA, 0.1% SDS, 1% NP-40, 1× protease and phosphatase inhibitor, pH 7.0 adjusted with NaOH) and total protein was determined by BCA assay. Oxygen consumption was normalized to total protein content as pmol O2/min/ug total protein.
Oxygen consumption rate (OCR) or extracellular acidification rate (ECAR) measurements from permeabilized neurons and isolated brain mitochondria were performed using the XF96 Extracellular Flux analyzer (Seahorse Bioscience). For assays using cultured neurons, primary neurons were dissociated from the forebrains of P0 pups, seeded at 1.9×10^4/well (PDL-coated XF96 plate), cultured to DIV13 and incubated with selected compounds or DMSO (0.1%) for 24 h. Prior to the start of the OCR measurement, all but 30 μl of Neurobasal A/B27 culture medium was removed from each well. Cells were washed twice with pre-warmed MAS-BSA assay medium (70 mM sucrose, 220 mM mannitol, 10 mM KH2PO4, 5 mM MgCl2, 2 mM HEPES and 1 mM EGTA, 4 mg/ml fatty-acid free BSA, pH=7.2 adjusted using KOH) and incubated in 180 ul MAS-BSA medium at 37° C. in a CO2-free incubator for 5 m. […] OCR and ECAR were measured at 37° C. under basal conditions followed by the sequential injection of pre-warmed 10× mitochondrial substrates/ADP (20 μl), oligomycin (22 μl), FCCP (24 μl), and rotenone/antimycin A (26 μl).

hippocampal neurons = test: Spontaneous excitatory postsynaptic currents (sEPSC), whole-cell patch-clamp; type: cell-based, mouse; settings: 12.5 μM, 24 hr, DIV8
Procedure: Spontaneous excitatory postsynaptic currents in hippocampal neurons. […] The cultures were treated with selected compounds or 0.1% DMSO for 24 hr before measuring spontaneous excitatory postsynaptic currents (sEPSCs). Whole-cell patch-clamp recordings were performed using an Axon Multiclamp 700b amplifier, 1440A Digidata digitizer and data acquisition using pClamp software (Axon Instruments, Foster City, Calif.). The neurons were first recorded in a current clamp mode to monitor cell health. Only neurons with a resting membrane potential of less than −40 mV were used for further analysis. sEPSC recordings were made at 50 kHz and subsequently filtered at 5 kHz. The membrane potential was held at −70 mV during the recording. […] Once a neuron was patched, its seal was monitored, and if the transient resistance was less than […], the recording was not used for analysis. All experiments were performed at room temperature. The frequency and amplitude of sEPSCs were analyzed using the template match search (pClamp) and measured as a percentage of baseline level, calculated from the average of a 5 min baseline recording. The values of the amplitude and frequency of EPSCs for each recording was reported as an average from a 5 min recording period.

primary cortical neurons = settings: Ding et al. 2011; cited from earlier work
Drosophila model for AD = test: Drosophila model for AD: neuronal mitochondrial morphology; type: in vivo; settings: cell bodies of neurons; 100 micromolar, 15 days-of-age
From the text: To assay representative compounds in this example, we employed a Drosophila model for AD (X. Wang et al., Mol. Neurobiol. […] Flies expressing this toxic protein show: […] Drugs that show efficacy therefore: enlarge neuronal mitochondria (increased volume, increased surface area, increased length), reduce sphericity, and reduce the number of mitochondria compared to untreated Alzheimer's flies. The AD model flies were collected immediately after eclosion from the pupal case and transferred to food that was laced with drug at 100 micromolar concentration. The flies were aged to 15 days-of-age: this is when the mitochondrial pathology is very robust. We compared the morphology of mitochondria collected from these flies treated with drug and compared them to the mitochondria of flies that remained untreated.

[5] = system: NRF2-mediated antioxidant response; settings: WO2012149478A3; cited from earlier work

Row | Compound | protection from peroxide (PO) induced mitochondrial fragmentation (primary neurons [1]) | ATP production kinetics, amplitude of single exponential fit ([2]; 12 μM, starting 20 min after addition, DMSO 22498±358) | ATP production of isolated mitochondria (direct effect) ([2]; 12.5 μM, within the 45-min measurement period, vs DMSO) | axonal mitochondrial circularity (primary neurons [3]) | neuritic area (primary neurons [3]) | Mitochondrial Morphology (primary neurons [3]) | Neurite Area (primary neurons [3]) | State 3 and 3u respiration stimulated by either Complex I or Complex II substrates (primary neurons [4]; 10 μM, 24 h, cultured neurons) | OCR (primary neurons [4]; oxygen consumption rate, significant change) | sEPSC frequency and amplitude (hippocampal neurons) | ΔΨm in primary cortical neurons treated with Aβ peptide (primary cortical neurons) | Surface area of mitochondria, p (treated vs untreated) (Drosophila model for AD) | neuroprotection by inducing the NRF2-mediated antioxidant response [5]
1 | CCCCOc1ccc(C(=O)CCN2CCCCC2)cc1 [DYCLONINE HYDROCHLORIDE] | fully protected | 28882±673 | significantly increased | robust effects | increase | elongated | increased | significant increase | increased | increasing both frequency and amplitude |  |  | 
2 | O=c1c(-c2ccc(O)cc2)coc2cc(O)cc(O)c12 [GENISTEIN] |  |  |  |  |  | elongated | n.s. |  |  |  | increase ΔΨm | p = 0.083 | 
3 | COC(=O)[C@@H]1[C@H]2C[C@H]3c4[nH]c5ccccc5c4CCN3C[C@@H]2CC[C@@H]1O [YOHIMBINE HYDROCHLORIDE] |  |  |  | robust effects | increase | elongated | increased |  |  |  |  |  | neuroprotective
